Test results from the NIST ThermoML archive (doi:10.1016/j.jct.2006.05.004).

Legend:
[1] = xn = mol fraction of the nth substance listed; settings: 298.15 K, 101 kPa, Liquid
[2] = excess molar enthalpy (molar enthalpy of mixing); xn = mol fraction of the nth substance listed; settings: 298.15 K, 101 kPa, Liquid
[3] = 298.15 K; 101.33 kPa; Liquid
[4] = refractive index (Na D-line) (dimensionless); settings: 298.15 K; 101.33 kPa; Liquid; Standard Abbe refractometry

BrCCCCCBr [1,5-dibromopentane] + CCCCC(=O)OC
Settings | excess molar enthalpy [kcal/mol] | mass density [kg/m3]
[1], x2 = 0.0687 | – | 1640.97
[1], x2 = 0.1285 | – | 1593.96
[1], x2 = 0.1833 | – | 1550.6
[1], x2 = 0.2445 | – | 1501.98
[1], x2 = 0.3066 | – | 1452.48
[1], x2 = 0.4193 | – | 1362.14
[1], x2 = 0.4804 | – | 1312.78
[1], x2 = 0.5408 | – | 1263.86
[1], x2 = 0.601 | – | 1214.87
[1], x2 = 0.6553 | – | 1170.47
[1], x2 = 0.7137 | – | 1122.58
[1], x2 = 0.7698 | – | 1076.41
[1], x2 = 0.822 | – | 1033.27
[1], x2 = 0.8841 | – | 981.75
[2], x2 = 0.0709 | 0.011 | –
[2], x2 = 0.1603 | 0.0179 | –
[2], x2 = 0.2511 | 0.0203 | –
[2], x2 = 0.3436 | 0.0192 | –
[2], x2 = 0.4221 | 0.0158 | –
[2], x2 = 0.4895 | 0.0112 | –
[2], x2 = 0.5345 | 0.00609 | –
[2], x2 = 0.5389 | 0.00564 | –
[2], x2 = 0.5838 | 0.00184 | –
[2], x2 = 0.606 | -0.00203 | –
[2], x2 = 0.6821 | -0.00554 | –
[2], x2 = 0.7721 | -0.00777 | –
[2], x2 = 0.8617 | -0.00657 | –
[2], x2 = 0.943 | -0.000574 | –

CCCCC(=O)OC [methyl pentanoate]
Settings | mass density [kg/m3] | refractive index
[3] | 884.59 | –
[4] | – | 1.395

BrCCCCCCBr [1,6-dibromohexane] + CCCC(=O)OC
Settings | excess molar enthalpy [kcal/mol] | mass density [kg/m3]
[1], x2 = 0.0254 | – | 1587.59
[1], x2 = 0.0833 | – | 1555.83
[1], x2 = 0.1606 | – | 1512
[1], x2 = 0.2243 | – | 1474.58
[1], x2 = 0.291 | – | 1434.05
[1], x2 = 0.3545 | – | 1394.06
[1], x2 = 0.4193 | – | 1351.87
[1], x2 = 0.5445 | – | 1265.85
[1], x2 = 0.6016 | – | 1224.52
[1], x2 = 0.6573 | – | 1182.86
[1], x2 = 0.7029 | – | 1147.73
[1], x2 = 0.7563 | – | 1105.29
[1], x2 = 0.8125 | – | 1059.12
[1], x2 = 0.9056 | – | 978.87
[2], x2 = 0.0838 | 0.018 | –
[2], x2 = 0.1878 | 0.0309 | –
[2], x2 = 0.2949 | 0.0395 | –
[2], x2 = 0.3961 | 0.0423 | –
[2], x2 = 0.4591 | 0.0405 | –
[2], x2 = 0.5094 | 0.0383 | –
[2], x2 = 0.5864 | 0.0329 | –
[2], x2 = 0.6566 | 0.0287 | –
[2], x2 = 0.734 | 0.0232 | –
[2], x2 = 0.8128 | 0.0172 | –
[2], x2 = 0.8885 | 0.0108 | –
[2], x2 = 0.9526 | 0.00392 | –

BrCCCBr [1,3-dibromopropane] + COC(C)=O
Settings | excess molar enthalpy [kcal/mol] | mass density [kg/m3]
[1], x2 = 0.0821 | – | 1900.75
[1], x2 = 0.1456 | – | 1845.13
[1], x2 = 0.2131 | – | 1784.87
[1], x2 = 0.2862 | – | 1717.43
[1], x2 = 0.3503 | – | 1656.68
[1], x2 = 0.412 | – | 1596.53
[1], x2 = 0.4744 | – | 1533.88
[1], x2 = 0.535 | – | 1471.53
[1], x2 = 0.5898 | – | 1413.65
[1], x2 = 0.6476 | – | 1350.9
[1], x2 = 0.7027 | – | 1289.26
[1], x2 = 0.7565 | – | 1227.76
[1], x2 = 0.8086 | – | 1166.64
[1], x2 = 0.8558 | – | 1109.89
[1], x2 = 0.905 | – | 1048.62
[1], x2 = 0.9514 | – | 989.83
[2], x2 = 0.08 | 0.034 | –
[2], x2 = 0.1613 | 0.0558 | –
[2], x2 = 0.2406 | 0.0748 | –
[2], x2 = 0.3177 | 0.0867 | –
[2], x2 = 0.3862 | 0.091 | –
[2], x2 = 0.4435 | 0.0934 | –
[2], x2 = 0.4958 | 0.0935 | –
[2], x2 = 0.5468 | 0.0894 | –
[2], x2 = 0.5909 | 0.0838 | –
[2], x2 = 0.6336 | 0.078 | –
[2], x2 = 0.6509 | 0.0747 | –
[2], x2 = 0.6702 | 0.0722 | –
[2], x2 = 0.7094 | 0.0627 | –
[2], x2 = 0.7687 | 0.0505 | –
[2], x2 = 0.8316 | 0.0365 | –
[2], x2 = 0.8928 | 0.0229 | –
[2], x2 = 0.9501 | 0.0112 | –

BrCCCCBr [1,4-dibromobutane] + COC=O
Settings | excess molar enthalpy [kcal/mol] | mass density [kg/m3]
[1], x2 = 0.0901 | – | 1776.76
[1], x2 = 0.1948 | – | 1721.83
[1], x2 = 0.283 | – | 1670.26
[1], x2 = 0.3632 | – | 1619.15
[1], x2 = 0.4351 | – | 1569.44
[1], x2 = 0.5042 | – | 1517.68
[1], x2 = 0.5678 | – | 1466.2
[1], x2 = 0.6267 | – | 1414.75
[1], x2 = 0.6804 | – | 1364.36
[1], x2 = 0.7742 | – | 1267.13
[1], x2 = 0.8172 | – | 1217.73
[1], x2 = 0.8611 | – | 1164.21
[1], x2 = 0.8985 | – | 1115.55
[1], x2 = 0.937 | – | 1062.14
[1], x2 = 0.9687 | – | 1015.8
[2], x2 = 0.1163 | 0.0944 | –
[2], x2 = 0.2218 | 0.152 | –
[2], x2 = 0.3327 | 0.205 | –
[2], x2 = 0.4395 | 0.235 | –
[2], x2 = 0.518 | 0.245 | –
[2], x2 = 0.581 | 0.243 | –
[2], x2 = 0.5984 | 0.241 | –
[2], x2 = 0.6591 | 0.226 | –
[2], x2 = 0.7346 | 0.196 | –
[2], x2 = 0.8107 | 0.155 | –
[2], x2 = 0.8851 | 0.104 | –
[2], x2 = 0.9503 | 0.0502 | –

BrCCCCBr [1,4-dibromobutane] + CCCCC(=O)OC
Settings | excess molar enthalpy [kcal/mol] | mass density [kg/m3]
[1], x2 = 0.0627 | – | 1757.47
[1], x2 = 0.1071 | – | 1711.91
[1], x2 = 0.1637 | – | 1654.55
[1], x2 = 0.2171 | – | 1601.18
[1], x2 = 0.3252 | – | 1495.18
[1], x2 = 0.4423 | – | 1383.13
[1], x2 = 0.5031 | – | 1326.06
[1], x2 = 0.621 | – | 1217.29
[1], x2 = 0.6839 | – | 1160.44
[1], x2 = 0.7415 | – | 1108.9
[1], x2 = 0.8021 | – | 1055.26
[1], x2 = 0.9296 | – | 944.62
[2], x2 = 0.0592 | 0.0081 | –
[2], x2 = 0.1366 | 0.0138 | –
[2], x2 = 0.2206 | 0.0173 | –
[2], x2 = 0.3061 | 0.0161 | –
[2], x2 = 0.3802 | 0.0125 | –
[2], x2 = 0.4461 | 0.00566 | –
[2], x2 = 0.4526 | 0.00449 | –
[2], x2 = 0.4992 | -0.00124 | –
[2], x2 = 0.5566 | -0.00686 | –
[2], x2 = 0.6213 | -0.0107 | –
[2], x2 = 0.6979 | -0.0116 | –
[2], x2 = 0.7947 | -0.0115 | –
[2], x2 = 0.9001 | -0.0075 | –
